{
  "source": "patent US20100190724A1",
  "about": "“USE OF MELANOCYTE-STIMULATING HORMONE RELEASE-INHIBITING FACTOR AS A THERAPEUTIC AGENT IN THE TREATMENT OF PSEUDOMONAS AERUGINOSA INFECTION” (priority 2007, published 2010)",
  "test_system": "drug-resistant Mycobacterium tuberculosis",
  "conditions": "peptide 10 micrograms per ml, seven days",
  "note": "Where a SMILES comes first, the peptide text is derived from it.",
  "data": [
    {"smiles": "CC(C)C[C@H](NC(=O)[C@@H]1CCCN1)C(=O)NCC(N)=O", "note": "[MSHRIF, Pro-Leu-Gly-NH2] (H-Pro-Leu-Gly-NH2)", "values": [
      {"measurement": "% inhibition", "value": 0.0, "unit": "%"}
    ]}
  ]
}
